Among the test systems are 786-0 renal; A498 renal; BT-549 breast; COLO 205 colon; HOP-92 NSCLC; NCI/ADR-RES ovarian; RXF 393 renal; T-47D breast; TK-10 renal; UACC-257 melanoma.
Holding throughout (assay): NCI-60 cell line screen, 48 h

Where “and” joins values, the source holds several entries; their conditions need not be identical. Equal values may be shown once.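 All cell lines were grown in 96-well plates and treated with compound for 48 hours. GI50 is the concentration that inhibits growth by half. TGI is the concentration that stops growth completely.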

`O=C(O)[C@H]1[C@@H](C2CCCCC2)O[C@@H](C2CCCCC2)O[C@H]1C(F)(F)F`: the TGI in the assay with 786-0 renal is 33.5 µM; with A498 renal it was 35.9 µM; in the assay on BT-549 breast it was 98.6 µM; in the assay on COLO 205 colon, 77.9 µM; with HOP-92 NSCLC, 61.3 µM; in the assay on NCI/ADR-RES ovarian, above 100 µM. Moreover, the TGI in the assay on RXF 393 renal was 48.4 µM; in the assay with T-47D breast, above 100 µM; with TK-10 renal, above 100 µM; in the assay on UACC-257 melanoma it was 96.1 µM.

As to `C1=C\SS/C=C\SS/C=C\SS/C=C\SS/1`, the TGI with 786-0 renal, in the assay with A498 renal, in the assay on BT-549 breast, in the assay on COLO 205 colon, with HOP-92 NSCLC and with NCI/ADR-RES ovarian was above 100 µM each time. Moreover, the TGI in the assay with RXF 393 renal, in the assay on T-47D breast, in the assay on TK-10 renal and in the assay on UACC-257 melanoma was above 100 µM in each case.

Turning to `CCOC(=O)c1cccc(NC(=O)CCl)c1`, the TGI was determined as 4.02 µM with 786-0 renal; 29.2 µM in the assay with A498 renal; 17.9 µM in the assay on BT-549 breast; 23.5 µM in the assay on COLO 205 colon; 16.9 µM in the assay on HOP-92 NSCLC; 22.7 µM in the assay on NCI/ADR-RES ovarian. Further, the TGI in the assay with RXF 393 renal was determined as 9.9 µM; in the assay on T-47D breast it was 10.1 µM; in the assay with TK-10 renal, 15 µM; with UACC-257 melanoma, 14.1 µM.

With `O=C1NC(N/N=C\C(O)C(O)C(O)CO)=N/C1=C/c1ccccc1` (centres undefined), the TGI with 786-0 renal is above 100 µM; with A498 renal it was above 100 µM; in the assay with BT-549 breast it was > 100 µM and 99.8 µM; with COLO 205 colon, above 100 µM; in the assay on HOP-92 NSCLC it was above 100 µM; in the assay on NCI/ADR-RES ovarian it was above 100 µM. In addition, the TGI with RXF 393 renal, with T-47D breast, with TK-10 renal and in the assay on UACC-257 melanoma was above 100 µM in each case. For the same compound, the GI50 in the assay with A498 renal was > 100 µM and 39.3 µM; with BT-549 breast it was > 100 µM and 27.4 µM; with HOP-92 NSCLC, > 100 µM and 45 µM; in the assay on T-47D breast it was > 100 µM and 49.2 µM.

As to `COC(=O)[C@H](Cc1ccccc1)NC(=O)c1ccc(CNC(=O)/C=C/c2ccc(-c3ccccc3)cc2)cc1`, the TGI is above 100 µM with 786-0 renal; above 100 µM with A498 renal; 97.2 µM with BT-549 breast; above 100 µM in the assay on COLO 205 colon; above 100 µM in the assay with HOP-92 NSCLC; above 100 µM in the assay on NCI/ADR-RES ovarian. Moreover, the TGI is 40.3 µM in the assay on RXF 393 renal, above 100 µM in the assay with T-47D breast, above 100 µM in the assay on TK-10 renal and above 100 µM with UACC-257 melanoma.

Turning to `CCC(C)[C@H](NC(=O)[C@H](Cc1ccccc1)NC(=O)N(CC)c1ccccc1)C(=O)N[C@@H](CC(C)C)C(=O)OC` (some centres undefined), the TGI with 786-0 renal, with A498 renal, with BT-549 breast, in the assay on COLO 205 colon, in the assay with HOP-92 NSCLC and in the assay with NCI/ADR-RES ovarian was above 100 µM in each case. In addition, the TGI with RXF 393 renal was above 100 µM; in the assay on T-47D breast, above 100 µM; in the assay with TK-10 renal, above 100 µM; in the assay on UACC-257 melanoma, 74.8 µM.

On to `O=S(=O)(Oc1ccc2oc3ccccc3c2c1-c1c(OS(=O)(=O)C(F)(F)F)ccc2oc3ccccc3c12)C(F)(F)F`, for which the TGI in the assay with 786-0 renal, in the assay with A498 renal, with BT-549 breast, in the assay on COLO 205 colon, with HOP-92 NSCLC and in the assay with NCI/ADR-RES ovarian was above 100 µM each time. The TGI with RXF 393 renal, in the assay with T-47D breast, in the assay with TK-10 renal and in the assay with UACC-257 melanoma was above 100 µM throughout.

As for `O=S(=O)(c1ccc(Br)cc1)n1c2ccc(Br)cc2c2nc3ccccc3nc21`, the TGI with 786-0 renal, in the assay with A498 renal, in the assay with BT-549 breast, in the assay with COLO 205 colon, in the assay on HOP-92 NSCLC and with NCI/ADR-RES ovarian was above 100 µM in each case. Also, the TGI in the assay with RXF 393 renal was 53 µM; in the assay with T-47D breast, above 100 µM; in the assay on TK-10 renal, above 100 µM; in the assay with UACC-257 melanoma, above 100 µM.

In the case of `CCCCNC1CCC2(SCCS2)c2[nH]c3ccccc3c21` (centres undefined), the TGI in the assay on 786-0 renal was 80 µM; in the assay with A498 renal it was 76.7 µM; in the assay with BT-549 breast, above 100 µM; in the assay with COLO 205 colon it was above 62.3 µM; with HOP-92 NSCLC it was above 81.9 µM; in the assay with NCI/ADR-RES ovarian it was above 100 µM. Moreover, the TGI was above 64.3 µM in the assay on RXF 393 renal, 6.23 µM in the assay with T-47D breast, 45.1 µM in the assay on TK-10 renal and 15.1 µM in the assay on UACC-257 melanoma.

Values taken from PubChem BioAssay (NCI).
